According to US7129218B2, “Use of rhamnolipids in wound healing, treatment and prevention of gum disease and periodontal regeneration” (Paradigm Biomedical, Inc., priority 1999, dated 2006):

How the values were obtained:
[1] = test system: neonatal human keratinocyte cells; test: Caspase detection in neonatal human keratinocyte cells in GM medium (with serum); assay type: cell-based
Experimental: The procedure for caspase detection in neonatal human keratinocyte cells in GM* medium (with serum) treated with BAC-3 using fluorescence spectroscopy
The same procedure as described for keratinocyte cells in KGM, but with presence of serum (GM). Passage #3 cells were grown in KGM medium for 7 days with one medium change. Plates were irradiated with UVB light for 66 seconds (792 J/m^2)
Cells, at 80% confluence, were administered BAC-3 in GM at 100 μg/ml, 50 μg/ml, 10 μg/ml and 1 μg/ml concentrations. Medium was replaced every two days over the period of 6 days. On day 3, positive apoptosis control was established by irradiating cells with 792 J/m^2 UVB light and incubating them with 1 μg/ml FAS antibody. BAC-3 treated and control cells were harvested and cell densities were adjusted to 1×10^6 cells per ml with FM. 300 μl cell aliquots were labeled with FAM-VAD-FMK, fluorescent-tagged, irreversible caspase inhibitor. Unlabelled inhibitor was washed away with buffer and 100 μl aliquots were read at 485 nm excitation and 535 nm emission with fluorescence detector. Error bars indicate standard deviations.

[2] = test system: neonatal human keratinocyte cells; test: Caspase detection in neonatal human keratinocyte cells in KGM (serum free) medium; assay type: cell-based
Experimental: The procedure for caspase detection in neonatal human keratinocyte cells in KGM* (serum free) medium treated With BAC-3 using fluorescence spectroscopy
The same procedure as described for fibroblasts except different growth conditions were used (NHK97-45 passage #3 cell line was used). Neonatal human keratinocytes were without the presence of serum (KGM medium). Prior to treatment with BAC-3, passage #3 cells were grown in KGM medium for 7 days with one medium change (until 80% confluent). For preparing positive apoptosis control, plates were irradiated with UVB light for 66 seconds (792 J/m^2).
Cells, at 80% confluence, were administered BAC-3 in KGM at 50 μg/ml, 10 μg/ml, 1 μg/ml and 0.5 μg/ml concentrations. Medium was replaced every two days over the period of 6 days. On day 3, positive apoptosis control was established by irradiating cells with 792 J/m^2 UVB light and incubating them with 1 μg/ml FAS antibody. BAC-3 treated and control cells were harvested and cell densities were adjusted to 1×10^6 cells per ml with FM. 300 μl cell aliquots were labeled with FAM-VAD-FMK, fluorescent-tagged, irreversible caspase inhibitor. Unlabelled inhibitor was washed away with buffer and 100 μl aliquots were read at 485 nm excitation and 535 nm emission with fluorescence detector. Error bars indicate standard deviations.

Structure (SMILES): CCCCCCCC(CC(=O)O)OC(=O)CC(CCCCCCC)OC1OC(C)C(O)C(O)C1OC1OC(C)C(O)C(O)C1O [BAC-3, (α-L-rhamnopyranosyl-(1,2)-α-L-rhamnopyranosyl)-3-hyroxydecanoyl-3-hydroxydecanoic acid]
- optimal concentration for inhibiting apoptosis ([1]; keratinocytes in GM with serum, 6 days, tested 100, 50, 10, 1 and 0.5 μg/ml): 50 µg/mL
- effect on apoptosis (caspase enzyme activity) ([1]; keratinocytes in GM, presence of serum): inhibited
- optimal concentration for inducing apoptosis (caspase activity peak) ([2]; keratinocytes in KGM serum free, 6 days, tested 50, 10, 1 and 0.5 μg/ml): 1 µg/mL
- mechanism of cell death at higher concentrations ([2]; keratinocytes in KGM, higher concentrations of BAC-3 (detergent effect)): cell necrosis
